Columns and labels:
Format in all cases: in vivo
[1] = system: redroot pigweed (Amaranthus retroflexus); assay: Test A preemergence, redroot pigweed; conditions: 0 to 100 scale, 10 days
Method in brief: (§1)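 Visual injury rating on a 0–100 scale (100 = complete control) versus untreated plants after 10 days in greenhouse. Treatments: directed soil spray preemergence after sowing in loam/sand, or postemergence on one- to two-leaf plants 2–10 cm high; surfactant-containing non-phytotoxic solvent formulation.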

[2] = system: blackgrass (Alopecurus myosuroides); assay: Test A postemergence, blackgrass; conditions: Alopecurus myosuroides, post-emergence, 240 h, Postemergence, 0 to 100 scale, 10 days, read-out: Plant response rating, Blackgrass; for pest or weed control at 31 g/ha: 31 g ai/ha; for pest or weed control at 125 g/ha: 125 g ai/ha
Method in brief: as §1

kochia (Bassia scoparia) [3] = assay: Test A postemergence, kochia; conditions: Bassia scoparia, post-emergence, 240 h, 10 days, read-out: Plant response rating, Kochia; for pest or weed control at 31 g/ha: 31 g ai/ha, postemergence, 0 to 100 scale (0 no effect, 100 complete control); for pest or weed control at 125 g/ha: Postemergence, 125 g ai/ha, 0 to 100 scale
Method in brief: as §1

[4] = system: sedge, umbrella (small-flower umbrella sedge, Cyperus difformis); assay: Test B flooded paddy test, sedge, umbrella; conditions: Cyperus difformis; 250 g ai/ha, Flood; visually evaluated after 10 to 14 days; read-out: Plant response rating, Sedge, Umbrella (0 to 100 scale where 0 is no effect and 100 is complete control)
Method in brief: (§2)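 Greenhouse paddy assay in which test compounds were dosed into floodwater standing 3 cm above the soil. Plants were at the 2-leaf stage, the water level was kept constant, and effects were rated visually 10–14 days later on a 0–100 scale relative to controls.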

[5] = system: wheat (Triticum aestivum); assay: Test A postemergence, wheat; conditions: Triticum aestivum, post-emergence, 240 h, 10 days, read-out: Plant response rating, Wheat; for plant injury at 31 g/ha: 31 g ai/ha, postemergence, 0 to 100 scale (0 no effect, 100 complete control); for plant injury at 125 g/ha: Postemergence, 125 g ai/ha, 0 to 100 scale
Method in brief: as §1

[6] = system: ragweed (common ragweed, Ambrosia artemisiifolia); assay: Test A postemergence, ragweed; conditions: Ambrosia artemisiifolia, post-emergence, 240 h, 10 days, read-out: Plant response rating, Ragweed; for pest or weed control at 31 g/ha: 31 g ai/ha, postemergence, 0 to 100 scale (0 no effect, 100 complete control); for pest or weed control at 125 g/ha: Postemergence, 125 g ai/ha, 0 to 100 scale
Method in brief: as §1

[7] = system: ryegrass, Italian (Italian ryegrass, Lolium multiflorum); assay: Test A preemergence, ryegrass, Italian; conditions: Lolium multiflorum, pre-emergence, 240 h, 0 to 100 scale, 10 days, read-out: Plant response rating, Ryegrass, Italian; for pest or weed control at 31 g/ha: 31 g ai/ha; for pest or weed control at 125 g/ha: 125 g ai/ha
Method in brief: as §1

[8] = system: barnyardgrass (Echinochloa crus-galli); assay: Test A preemergence, barnyardgrass; conditions: 10 days
Method in brief: as §1

[9] = system: ragweed (common ragweed, Ambrosia artemisiifolia); assay: Test A preemergence, ragweed; conditions: Ambrosia artemisiifolia, pre-emergence, 240 h, 0 to 100 scale, 10 days, read-out: Plant response rating, Ragweed; for pest or weed control at 31 g/ha: 31 g ai/ha; for pest or weed control at 125 g/ha: 125 g ai/ha
Method in brief: as §1

[10] = system: foxtail, giant (giant foxtail, Setaria faberi); assay: Test A postemergence, foxtail, giant; conditions: Setaria faberi, post-emergence, 240 h, Postemergence, 0 to 100 scale, 10 days, read-out: Plant response rating, Foxtail, Giant; for pest or weed control at 31 g/ha: 31 g ai/ha; for pest or weed control at 125 g/ha: 125 g ai/ha
Method in brief: as §1

[11] = system: barnyardgrass (Echinochloa crus-galli); assay: Test A postemergence, barnyardgrass; conditions: Postemergence, 0 to 100 scale, 10 days
Method in brief: as §1

corn (Zea mays) = assay: Test A postemergence, corn; conditions: Zea mays, post-emergence, 240 h, Postemergence, 0 to 100 scale, 10 days; for Corn plant response rating (crop injury, 0 = no effect, 100 = complete kill) at 31 g/ha: 31 g ai/ha; for Corn plant response rating (crop injury, 0 = no effect, 100 = complete kill) at 125 g/ha: 125 g ai/ha
Method in brief: as §1

kochia (Bassia scoparia) [12] = assay: Test A preemergence, kochia; conditions: Bassia scoparia, pre-emergence, 240 h, 0 to 100 scale, 10 days, read-out: Plant response rating, Kochia; for pest or weed control at 31 g/ha: 31 g ai/ha; for pest or weed control at 125 g/ha: 125 g ai/ha
Method in brief: as §1

[13] = system: galium (catchweed bedstraw, Galium aparine); assay: Test A postemergence, galium; conditions: Galium, post-emergence, 240 h, 10 days, read-out: Plant response rating, Galium; for pest or weed control at 31 g/ha: 31 g ai/ha, postemergence, 0 to 100 scale (0 no effect, 100 complete control); for pest or weed control at 125 g/ha: Postemergence, 125 g ai/ha, 0 to 100 scale
Method in brief: as §1

rice (Oryza sativa) = assay: Test B flooded paddy test, rice; conditions: Oryza sativa; 250 g ai/ha, Flood; visually evaluated after 10 to 14 days; read-out: Plant response rating, Rice (0 to 100 scale where 0 is no effect and 100 is complete control)
Method in brief: as §2

[14] = system: barnyardgrass (Echinochloa crus-galli); assay: Test B flooded paddy test, barnyardgrass; conditions: Echinochloa crus-galli; 250 g ai/ha, Flood; visually evaluated after 10 to 14 days; read-out: Plant response rating, Barnyardgrass (0 to 100 scale where 0 is no effect and 100 is complete control)
Method in brief: as §2

[15] = 125 g ai/ha, 0 to 100 scale (0 no effect, 100 complete control)

SMILES | Plant response rating, Pigweed, Redroot ([1]; 31 g ai/ha) | Plant response rating, Pigweed, Redroot ([1]; 125 g ai/ha) | pest or weed control at 31 g/ha [2] [%] | pest or weed control at 125 g/ha [2] [%] | pest or weed control at 31 g/ha (kochia (Bassia scoparia) [3]) [%] | pest or weed control at 125 g/ha (kochia (Bassia scoparia) [3]) [%] | pest or weed control at 250 g/ha [4] [%] | plant injury at 31 g/ha [5] [%] | plant injury at 125 g/ha [5] [%] | pest or weed control at 31 g/ha [6] [%] | pest or weed control at 125 g/ha [6] [%] | pest or weed control at 31 g/ha [7] [%] | pest or weed control at 125 g/ha [7] [%] | Plant response rating, Barnyardgrass ([8]; 31 g ai/ha, 0 to 100 scale) | Plant response rating, Barnyardgrass [8, 15] | pest or weed control at 31 g/ha [10] [%] | pest or weed control at 125 g/ha [10] [%] | Plant response rating, Barnyardgrass ([11]; 31 g ai/ha) | Plant response rating, Barnyardgrass ([11]; 125 g ai/ha) | Corn plant response rating (crop injury, 0 = no effect, 100 = complete kill) at 31 g/ha (corn (Zea mays)) [%] | further results
CC(=O)OCOc1c(C)nn(C)c(=O)c1-c1c(Br)sc2ccc(F)cc12 [Compound 2, 5-[(acetyloxy)methoxy]-4-(2-bromo-5-fluorobenzo[b]thien-3-yl)-2,6-dimethyl-3(2H)-pyridazinone] | 90 | 100 | 30 | 30 | 70 | 80 | 45 | 0 | 40 | 70 | 100 | 70 | 100 | 0 | 0 | 50 | 90 | 50 | 60 | 0 | pest or weed control at 31 g/ha [9]: 70%; pest or weed control at 125 g/ha [9]: 90%; Corn plant response rating (crop injury, 0 = no effect, 100 = complete kill) at 125 g/ha (corn (Zea mays)): 30%; pest or weed control at 31 g/ha (kochia (Bassia scoparia) [12]): 20%; pest or weed control at 125 g/ha (kochia (Bassia scoparia) [12]): 50%; pest or weed control at 31 g/ha [13]: 90%; pest or weed control at 125 g/ha [13]: 100%; plant injury at 250 g/ha (rice (Oryza sativa)): 0%; pest or weed control at 250 g/ha [14]: 0%
CC(=O)OCOc1c(Cl)nn(C)c(=O)c1-c1c(C)ccc2ccc(C)cc12 [Compound 3, 5-[(Acetyloxy)methoxy]-6-chloro-4-(2,7-dimethyl-1-naphthalenyl)-2-methyl-3(2H)-pyridazinone] | 100 | 100 | 10 | 30 | 60 | 80 | 98 | 0 | 20 | 90 | 100 | 20 | 100 | 60 | 100 | 80 | 90 | 60 | 90 | 0 | pest or weed control at 31 g/ha [9]: 90%; pest or weed control at 125 g/ha [9]: 90%; Corn plant response rating (crop injury, 0 = no effect, 100 = complete kill) at 125 g/ha (corn (Zea mays)): 20%; pest or weed control at 31 g/ha (kochia (Bassia scoparia) [12]): 10%; pest or weed control at 125 g/ha (kochia (Bassia scoparia) [12]): 90%; pest or weed control at 31 g/ha [13]: 100%; pest or weed control at 125 g/ha [13]: 100%; plant injury at 250 g/ha (rice (Oryza sativa)): 0%; pest or weed control at 250 g/ha [14]: 98%
CC(=O)OCOc1c(Cl)nn(C)c(=O)c1-c1c2ccccc2c(Cl)c2ccccc12 [Compound 11, 5-[(acetyloxy)methoxy]-6-chloro-4-(10-chloro-9-anthracenyl)-2-methyl-3(2H)-pyridazinone] | 100 | 100 | 40 | 10 | 0 | 50 | 95 | 0 | 0 | 100 | 100 | 0 | 30 | 20 | 30 | 30 | 80 | 20 | 30 | 0 | Corn plant response rating (crop injury, 0 = no effect, 100 = complete kill) at 125 g/ha (corn (Zea mays)): 10%; pest or weed control at 31 g/ha (kochia (Bassia scoparia) [12]): 0%; pest or weed control at 125 g/ha (kochia (Bassia scoparia) [12]): 10%; pest or weed control at 31 g/ha [13]: 100%; pest or weed control at 125 g/ha [13]: 100%; plant injury at 250 g/ha (rice (Oryza sativa)): 0%; pest or weed control at 250 g/ha [14]: 15%

— patent US12692238B2, “Substituted pyridazinone herbicides” (FMC CORPORATION, priority 2020, dated 2026)
